Laboratory results reported in patent US9278107B2, “Antibacterial agent composition and antiviral agent composition comprising silicon-containing compound; antibacterializing method, cleaning/mouth rinsing method; method for fixing antibacterial agent and antiviral agent” (Hiroshima University, priority 2008, dated 2016).

Assays:
[1] = tested on: atypical (swine) influenza virus (type H1N1); type: cell-based
[2] = tested on: influenza virus A A/swan/Shimane/499/83(H5N3); type: cell-based, influenza virus A (avian); settings: reacted with virus at room temperature for 3 minutes, diluted with DMEM, MDCK(+) cells, TCID50; (20 ppm)
[3] = tested on: Escherichia coli WP2uvrA and Salmonella typhimurium TA series strains (TA100, TA1535, TA98 and TA1537); settings: positive control

Row | SMILES | virus inactivating effect [1] | EtAC dilution at which it is still effective [2] | number of reverse mutant colonies as compared with negative control [3]
1 | CCCCCCCCCCCCCCCCCC[N+](C)(C)CCC[Si](OCC)(OCC)OCC.[Cl-] [EtAC, octadecyldimethyl(3-triethoxysilylpropyl)ammonium chloride] | highly significant effects are found | 0.002% | –
2 | Cl.Nc1c2ccccc2nc2ccccc12 [9-Aminoacridine hydrochloride] | – | – | remarkable increase
3 | NC(=O)C(=Cc1ccc([N+](=O)[O-])o1)c1ccco1 [2-(2-furyl)-3-(5-nitro-2-furyl)acrylamide] | – | – | remarkable increase
4 | [N-]=[N+]=[N-] [sodium azide] | – | – | remarkable increase
